Test results: the supplement of paper PMC11061612

Legend:
Assay in all cases: combination Emax (second highest fraction inhibited in the dose matrix, 72 h); higher = more inhibition; extreme values may be limits of the assay
[1] = tested on: VMRC-RCZ (Kidney Carcinoma)
In short: (§1)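 Cell lines in DMEM/F12 or RPMI with 10% FBS were plated in 1536-well plates, held 24 hours at 37°C, 5% CO2, then given two-drug dose matrices for 72 hours (DMSO typically 0.2%). Viability was read by CellTiter-Glo 2.0 luminescence and scaled as inhibition from 0 (vehicle wells) to 1 (blank wells). Combination Emax is the second-highest inhibition in the matrix; Bliss excess is observed combination effect minus expected EA + EB − EA·EB, EA and EB being single-agent effects.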

[2] = tested on: COR-L279 (Small Cell Lung Carcinoma)
In short: as §1

[3] = tested on: ST486 (Burkitt's Lymphoma)
In short: as §1

[4] = tested on: KYSE-270 (Esophageal Squamous Cell Carcinoma)
In short: as §1

[5] = tested on: MN-60 (B-Lymphoblastic Leukemia)
In short: as §1

RD (Rhabdomyosarcoma) = tested on: RD (Rhabdomyosarcoma)
In short: as §1

[6] = tested on: SU-DHL-5 (B-Cell Non-Hodgkin's Lymphoma)
In short: as §1

[7] = tested on: KP-3 (Pancreatic Carcinoma)
In short: as §1

[8] = tested on: NCI-H3122 (Lung Adenocarcinoma)
In short: as §1

[9] = tested on: 8505C (Thyroid Gland Carcinoma)
In short: as §1

[10] = tested on: JHH-4 (Hepatocellular Carcinoma)
In short: as §1

[11] = tested on: SK-GT-2 (Gastric Carcinoma)
In short: as §1

M059J (Glioblastoma) = tested on: M059J (Glioblastoma)
In short: as §1

[12] = tested on: IM-95 (Gastric Carcinoma)
In short: as §1

NCI-H2731 (Mesothelioma) = tested on: NCI-H2731 (Mesothelioma)
In short: as §1

[13] = tested on: NCI-H520 (Squamous Cell Lung Carcinoma)
In short: as §1

[14] = tested on: KY821 (Acute Myeloid Leukemia)
In short: as §1

[15] = tested on: KMS-12-BM (Plasma Cell Myeloma)
In short: as §1

[16] = tested on: SK-GT-4 (Esophageal Adenocarcinoma)
In short: as §1

[17] = tested on: NCI-H526 (Small Cell Lung Carcinoma)
In short: as §1

Row | SMILES | combination Emax [1] | combination Emax [2] | combination Emax [3] | combination Emax [4] | combination Emax [5] | combination Emax (RD (Rhabdomyosarcoma)) | combination Emax [6] | combination Emax [7] | combination Emax [8] | combination Emax [9] | combination Emax [10] | combination Emax [11] | combination Emax (M059J (Glioblastoma)) | combination Emax [12] | combination Emax (NCI-H2731 (Mesothelioma)) | combination Emax [13] | combination Emax [14] | combination Emax [15] | combination Emax [16] | combination Emax [17]
1 | Cc1cc2ncnn2cc1Nc1ncc2c(n1)n(C1CCOCC1)c(=O)n2C [AZD7648] + C=CCn1c(=O)c2cnc(Nc3ccc(N4CCN(C)CC4)cc3)nc2n1-c1cccc(C(C)(C)O)n1 [AZD1775] (first compound max 10 µM, partner max 1 µM) | 0.393 | 0.484 | 0.98 | 0.594 | 0.124 | 0.32 | 1 | 0.282 | 0.744 | 0.175 | 0.483 | 0.74 | 0.522 | 0.501 | 0.416 | 0.81 | 0.994 | 0.937 | 0.474 | 0.721
2 | C[C@@H](c1ccc2nccn2c1)n1nnc2ncc(-c3cnn(C)c3)nc21 [Savolitinib] + CC1(C)CCC(CN2CCN(c3ccc(C(=O)NS(=O)(=O)c4ccc(NCC5CCOCC5)c([N+](=O)[O-])c4)c(Oc4cnc5[nH]ccc5c4)c3)CC2)=C(c2ccc(Cl)cc2)C1 [Venetoclax] (first compound max 1 µM, 7x7, partner max 1 µM) | 0.152 | 0.199 | 0.118 | 0.15 | 0.125 | 0.143 | 0.142 | 0.131 | 0.153 | 0.12 | 0.539 | 0.139 | 0.182 | 0.333 | 0.144 | 0.138 | 0.895 | 0.97 | 0.101 | 0.621
3 | Cc1c2c(nn1C)CSCc1cc(n(C)n1)CSc1cc(c3ccccc3c1)OCCCc1c(C(=O)O)n(C)c3c-2c(Cl)ccc13 [AZD5991] + Cc1cc2ncnn2cc1Nc1ncc2c(n1)n(C1CCOCC1)c(=O)n2C [AZD7648] (first compound max 1 µM, 7x7, partner max 10 µM) | 0.191 | 0.468 | 0.841 | 0.508 | 0.15 | 0.521 | 1 | 0.168 | 0.442 | 0.193 | 0.262 | 0.192 | 0.468 | 0.788 | 0.576 | 0.567 | 1 | 1 | 0.327 | 0.323
4 | COc1cccc(OCCCN)c1-c1cc(Nc2cnc(C#N)cn2)n[nH]1 [Prexasertib] + C=CCn1c(=O)c2cnc(Nc3ccc(N4CCN(C)CC4)cc3)nc2n1-c1cccc(C(C)(C)O)n1 [AZD1775] (first compound max 1 µM, partner max 1 µM) | 0.388 | 0.881 | 1 | 1 | 0.653 | 0.75 | 1 | 0.472 | 0.896 | 0.727 | 0.701 | 0.899 | 0.822 | 0.691 | 0.544 | 0.853 | 1 | 1 | 0.758 | 0.937
5 | CN(C)CCCOc1ccc(-c2ccc3ncc4c(c3c2)n(C2CCOCC2)c(=O)n4C)cn1 [AZD0156] + C=CCn1c(=O)c2cnc(Nc3ccc(N4CCN(C)CC4)cc3)nc2n1-c1cccc(C(C)(C)O)n1 [AZD1775] (first compound max 1 µM, partner max 1 µM) | 0.206 | 0.454 | 0.987 | 0.676 | 0.374 | 0.401 | 0.977 | 0.211 | 0.765 | 0.126 | 0.428 | 0.714 | 0.628 | 0.454 | 0.285 | 0.789 | 0.987 | 0.948 | 0.4 | 0.65
6 | CC1(C)CCC(CN2CCN(c3ccc(C(=O)NS(=O)(=O)c4ccc(NCC5CCOCC5)c([N+](=O)[O-])c4)c(Oc4cnc5[nH]ccc5c4)c3)CC2)=C(c2ccc(Cl)cc2)C1 [Venetoclax] + CCN(CCO)CCCOc1ccc2c(Nc3cc(CC(=O)Nc4cccc(F)c4)[nH]n3)ncnc2c1 [AZD2811] (first compound max 1 µM, 7x7, partner max 1 µM) | 0.178 | 0.833 | 0.925 | 0.716 | 0.297 | 0.172 | 0.778 | 0.148 | 0.33 | 0.211 | 0.205 | 0.155 | 0.375 | 0.412 | 0.211 | 0.258 | 0.978 | 1 | 0.409 | 0.928
7 | CCc1c2c(nc3ccc(O)cc13)-c1cc3c(c(=O)n1C2)COC(=O)[C@]3(O)CC [SN-38] + CN(C)CCCOc1ccc(-c2ccc3ncc4c(c3c2)n(C2CCOCC2)c(=O)n4C)cn1 [AZD0156] (first compound max 0.3 µM, 7x7, partner max 1 µM) | 0.261 | 1 | 0.733 | 0.946 | 0.838 | 0.246 | 1 | 0.0449 | 0.925 | 0.87 | 0.905 | 0.444 | 0.978 | 0.499 | 0.406 | 0.786 | 0.998 | 0.96 | 0.258 | 1
8 | CN(CCO)CC[C@H](CSc1ccccc1)Nc1ccc(S(=O)(=O)NC(=O)c2ccc(N3CCC([C@@H](O)c4ccccc4-c4ccc(Cl)cc4)CC3)cc2)cc1S(=O)(=O)C(F)(F)F [AZD4320] + C[C@@H]1COCCN1C2=NC(=NC(=C2)C3(CC3)[S@](=N)(=O)C)C4=C5C=CNC5=NC=C4 [AZD6738] (first compound max 1 µM, 7x7, partner max 10 µM) | 0.566 | 1 | 0.969 | 0.78 | 0.51 | 0.781 | 1 | 0.486 | 0.675 | 0.59 | 0.385 | 0.633 | 0.774 | 0.778 | 0.328 | 0.696 | 1 | 1 | 0.675 | 0.977
9 | CN(CCO)CC[C@H](CSc1ccccc1)Nc1ccc(S(=O)(=O)NC(=O)c2ccc(N3CCC([C@@H](O)c4ccccc4-c4ccc(Cl)cc4)CC3)cc2)cc1S(=O)(=O)C(F)(F)F [AZD4320] + CCN(CCO)CCCOc1ccc2c(Nc3cc(CC(=O)Nc4cccc(F)c4)[nH]n3)ncnc2c1 [AZD2811] (first compound max 1 µM, 7x7, partner max 1 µM) | 0.149 | 1 | 0.979 | 0.113 | 0.238 | 0.856 | 0.755 | 0.0781 | 0.269 | 0.369 | 0.17 | 0.554 | 0.69 | 0.859 | 0.492 | 0.689 | 1 | 1 | 0.238 | 0.961
10 | CC1(C)CCC(CN2CCN(c3ccc(C(=O)NS(=O)(=O)c4ccc(NCC5CCOCC5)c([N+](=O)[O-])c4)c(Oc4cnc5[nH]ccc5c4)c3)CC2)=C(c2ccc(Cl)cc2)C1 [Venetoclax] + CN(C)CCCOc1ccc(-c2ccc3ncc4c(c3c2)n(C2CCOCC2)c(=O)n4C)cn1 [AZD0156] (first compound max 1 µM, 7x7, partner max 1 µM) | 0.14 | 0.522 | 0.77 | 0.785 | 0.285 | 0.161 | 0.455 | 0.146 | 0.264 | 0.2 | 0.234 | 0.155 | 0.169 | 0.19 | 0.145 | 0.354 | 0.926 | 1 | 0.392 | 0.856
11 | Cc1c2c(nn1C)CSCc1cc(n(C)n1)CSc1cc(c3ccccc3c1)OCCCc1c(C(=O)O)n(C)c3c-2c(Cl)ccc13 [AZD5991] + C1CN(CCC1(C(=O)N[C@@H](CCO)C2=CC=C(C=C2)Cl)N)C3=NC=NC4=C3C=CN4 [Capivasertib] (first compound max 1 µM, 7x7, partner max 3 µM) | 0.336 | 0.579 | 0.829 | 0.505 | 0.339 | 0.535 | 1 | 0.135 | 0.419 | 0.158 | 0.211 | 0.132 | 0.44 | 0.784 | 0.21 | 0.561 | 1 | 1 | 0.377 | 0.47
12 | COc1nnc2ccc(N3CCC(c4ccc(OCCN5CCN(C)C(=O)[C@H]5C)cc4)CC3)nn12 [AZD5153] + C[C@@H]1COCCN1C2=NC(=NC(=C2)C3(CC3)[S@](=N)(=O)C)C4=C5C=CNC5=NC=C4 [AZD6738] (first compound max 1 µM, 7x7, partner max 10 µM) | 0.58 | 0.972 | 0.973 | 0.57 | 0.8 | 0.748 | 1 | 0.409 | 0.757 | 0.807 | 0.714 | 0.535 | 0.74 | 0.44 | 0.699 | 0.869 | 1 | 1 | 0.663 | 0.947
